Source: PubChem BioAssay AID1963873 (Molecular Pharmacology Branch, DTP, NCI, 2024)

Test system: 276233-004-R-J1-PDC KRAS spheroids with HUVEC/MSC, viability
Assay: Anticancer human tumor 276233-004-R-J1-PDC patient-derived colon adenocarcinoma cell line growth inhibition [KRAS2]
Conditions: for IC50: curve of first compound; for viability, T/C: stronger effect = lower value
In short: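 KRAS-mutant tumor cells were grown as spheroids with HUVEC endothelial cells and human MSCs as stroma. Targeted agents were tested alone and with KRAS pathway inhibitors. Doses started at or near clinical Cmax, or 10 microM, descending half-log.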

[1] = second compound 0.0316 µM, first compound 0.0316 µM
[2] = second compound 0.0316 µM, first compound 0.1 µM
[3] = second compound 0.0316 µM, first compound 0.316 µM
[4] = second compound 0.0316 µM, first compound 1 µM
[5] = second compound 0.0316 µM, first compound 3.16 µM
[6] = second compound 0.0316 µM, first compound 10 µM
[7] = second compound 0.1 µM, first compound 0.0316 µM
[8] = second compound 0.1 µM, first compound 0.1 µM
[9] = second compound 0.1 µM, first compound 0.316 µM
[10] = second compound 0.1 µM, first compound 1 µM
[11] = second compound 0.1 µM, first compound 3.16 µM
[12] = second compound 0.1 µM, first compound 10 µM
[13] = second compound 0.316 µM, first compound 0.0316 µM
[14] = second compound 0.316 µM, first compound 0.1 µM
[15] = second compound 0.316 µM, first compound 0.316 µM
[16] = second compound 0.316 µM, first compound 1 µM
[17] = second compound 0.316 µM, first compound 3.16 µM
[18] = second compound 0.316 µM, first compound 10 µM
[19] = second compound 1 µM, first compound 0.0316 µM
[20] = second compound 1 µM, first compound 0.1 µM
[21] = second compound 1 µM, first compound 0.316 µM
[22] = second compound 1 µM, first compound 1 µM
[23] = second compound 1 µM, first compound 3.16 µM
[24] = second compound 1 µM, first compound 10 µM
[25] = second compound 3.16 µM, first compound 0.0316 µM
[26] = second compound 3.16 µM, first compound 0.1 µM
[27] = second compound 3.16 µM, first compound 0.316 µM
[28] = second compound 3.16 µM, first compound 1 µM
[29] = second compound 3.16 µM, first compound 3.16 µM
[30] = second compound 3.16 µM, first compound 10 µM
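Also: cells exposed to agents for seven days before viability read.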
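For viability, T/C in this document: 100% = DMSO vehicle control wells and lower values mean fewer viable cells.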

| Compound | IC50 (second compound 0.0316 µM) | IC50 (second compound 0.1 µM) | IC50 (second compound 0.316 µM) | IC50 (second compound 1 µM) | IC50 (second compound 3.16 µM) | viability, T/C [1] | viability, T/C [2] | viability, T/C [3] | viability, T/C [4] | viability, T/C [5] | viability, T/C [6] | viability, T/C [7] | viability, T/C [8] | viability, T/C [9] | viability, T/C [10] | viability, T/C [11] | viability, T/C [12] | viability, T/C [13] | viability, T/C [14] | viability, T/C [15] | further results |
| --- | --- | --- | --- | --- | --- | --- | --- | --- | --- | --- | --- | --- | --- | --- | --- | --- | --- | --- | --- | --- | --- |
| COc1cc(Nc2ncc3c(n2)-c2ccc(Cl)cc2C(c2c(F)cccc2OC)=NC3)ccc1C(=O)O + C=CC(=O)N1CCN(c2nc(OCC3CCCN3C)nc3c2CCN(c2cccc4cccc(C)c24)C3)CC1CC#N | > 10 µM | > 10 µM | > 10 µM | > 10 µM | 2.12 µM | 98.9% | 85.5% | 89.2% | 86.2% | 77.9% | 77% | 85.9% | 91.1% | 82.2% | 73.6% | 83.3% | 81% | 94.5% | 79% | 70.9% | viability, T/C [16]: 67.8%; viability, T/C [17]: 83.1%; viability, T/C [18]: 63.9%; viability, T/C [19]: 79.8%; viability, T/C [20]: 81.3%; viability, T/C [21]: 94.9%; viability, T/C [22]: 96.9%; viability, T/C [23]: 67.2%; viability, T/C [24]: 70.5%; viability, T/C [25]: 45.9%; viability, T/C [26]: 64%; viability, T/C [27]: 55.7%; viability, T/C [28]: 54.1%; viability, T/C [29]: 47.4%; viability, T/C [30]: 26.9% |
| COc1cc2nccc(Oc3ccc(NC(=O)C4(C(=O)Nc5ccc(F)cc5)CC4)cc3)c2cc1OC + C=CC(=O)N1CCN(c2nc(OCC3CCCN3C)nc3c2CCN(c2cccc4cccc(C)c24)C3)CC1CC#N | > 10 µM | > 10 µM | > 10 µM | > 10 µM | 1.68 µM | 80% | 89.7% | 91% | 78.9% | 87.6% | 90.6% | 93.5% | 116% | 82.5% | 94.2% | 74.8% | 70.6% | 76.2% | 79.5% | 86% | viability, T/C [16]: 84.6%; viability, T/C [17]: 84.7%; viability, T/C [18]: 91.2%; viability, T/C [19]: 71.5%; viability, T/C [20]: 74.5%; viability, T/C [21]: 67.1%; viability, T/C [22]: 72%; viability, T/C [23]: 80.1%; viability, T/C [24]: 75.7%; viability, T/C [25]: 52.1%; viability, T/C [26]: 63.4%; viability, T/C [27]: 65%; viability, T/C [28]: 76.7%; viability, T/C [29]: 32.6%; viability, T/C [30]: 3.91% |
| O=C(c1cc(Cc2n[nH]c(=O)c3ccccc23)ccc1F)N1CCN(C(=O)C2CC2)CC1 + C=CC(=O)N1CCN(c2nc(OCC3CCCN3C)nc3c2CCN(c2cccc4cccc(C)c24)C3)CC1CC#N | > 10 µM | > 10 µM | > 10 µM | > 10 µM | < 0.0316 µM | 114% | 109% | 101% | 93.9% | 91.2% | 82.5% | 98.1% | 109% | 100% | 87% | 87.1% | 83.1% | 110% | 94.8% | 93.4% | viability, T/C [16]: 68.7%; viability, T/C [17]: 83.4%; viability, T/C [18]: 76.3%; viability, T/C [19]: 81.5%; viability, T/C [20]: 89.8%; viability, T/C [21]: 110%; viability, T/C [22]: 87.6%; viability, T/C [23]: 82.8%; viability, T/C [24]: 85%; viability, T/C [25]: 55.4%; viability, T/C [26]: 37.9%; viability, T/C [27]: 57.2%; viability, T/C [28]: 43.9%; viability, T/C [29]: 44.9%; viability, T/C [30]: 37.1% |
